The values that follow come from publication PMC12583827, “Harnessing microbial-derived metabolites in the urinary tract to prevent infection induced catheter encrustation” (Nature Communications, 2025).

One series concerns urease operon (ureR). On the set-up: method as in PMID 31921010. The settings on record: cited from earlier work.
The next series deals with P. mirabilis. Kind of series: In vitro glass “bladder” model of catheter encrustation. Type of series: cell-based, Proteus mirabilis. The method, then:
A Foley catheter is inserted aseptically into the vessel through an opening at the base, the balloon is inflated, and the catheter is attached to a catheter drainage bag (Fig. 7A). The “bladder” is supplied with sterile AUM at a physiologically relevant flow rate via peristaltic pump from a media reservoir, the “kidney” (Fig. 7A). An initial bacterial inoculum of 10^8 CFU of P. mirabilis was added to the AUM in the “bladder” inner chamber to model robust bacteriuria, followed by initiation of flow (Fig. 7B). The performance of urease-dampening metabolites was evaluated as a reduction in 1) effluent AUM pH over the 24 h study period, and 2) crystalline biofilm formation and ion precipitation on catheter segments 24 h post inoculation. Urease-dampening metabolites and AHA were introduced into the system by direct dissolution into the AUM reservoirs. For each study, both positive (untreated P. mirabilis) and negative (untreated P. mirabilis urease negative mutant) controls were included. Effluent urine samples were collected at 0, 3, 6, 9, 12 and 24 h post inoculation. This preclinical model of catheter encrustation was modified to assess whether prophylactic administration of urease-dampening metabolites increases efficacy of antimicrobials against catheter biofilms, as outlined in Fig. 9A. Each experiment was performed in triplicate. Full details of experimental set up, sample collection, and processing are provided below and in Supplementary Materials.
A previously described glass “bladder” model was used, in which a 500 mL water-jacketed glass vessel is maintained at 37 °C via a circulating water bath, a Foley catheter is inserted and inflated, and artificial urine medium (AUM) is supplied into the “bladder” at a constant flow rate (0.75-1.0 mL/min) through a peristaltic pump[55],[56]. For consistency with the in vitro urease activity assays and the physiologic range of urea in healthy human urine, AUM was supplemented with 500 mM urea[57]. Urease-dampening metabolites of interest were directly dissolved in AUM 500 mM urea, adjusted to a pH of 5.8, and filter sterilized via a 0.2μm filter. “Bladders” were inoculated with 10^8 CFUs of P. mirabilis. Samples were collected from the catheter port at 0, 3, 6, 9, 12, and 24 hours to monitor pH and bacterial CFUs. Catheters segments were processed for CFUs, crystal violet staining of biofilm biomass, and ion composition at 24 h. Full details are provided in the Supplementary Methods.
236 and the segments were air dried for 15 min. Catheter segments were stained with 1.0 ml 0.1%
237 crystal violet for 10 min, washed by gentle dunking in 1X phosphate-buffered saline (PBS) to
238 remove excess stain, and solubilized in a microcentrifuge tube containing 750μL of 1% SDS
239 95% ethanol and vortexed for 5 minutes. Crystal violet absorbance (OD570) was measured in a
240 BioTek Synergy H1 microplate reader and blanked using cell-free control wells for each biofilm
243 Catheter segment biofilm viability. Catheter segments were washed by gentle dunking in 1X
244 phosphate-buffered saline (PBS) to remove any remaining planktonic bacteria and residual AUM
245 from the catheter lumen. Catheter segments were then placed in a microcentrifuge tube
246 containing 1mL of 1X PBS and vortexed for 5 minutes to solubilize the biofilm. Samples
247 underwent serial 10-fold dilutions and were spiral plated (Eddy Jet 2; Neutec Group Inc.,
248 Farmingdale, NY) onto low-salt LB agar for enumeration of CFU using a ProtoCOL 3 automated
249 colony counter (Synbiosis).
251 Catheter segment elemental composition. Catheter segments were placed in a microcentrifuge

The subject of the next series is lymphoblasts (K562). The settings on record: cited from earlier work.
The conditions of series [1]: cited from earlier work.
For series [2], the system named is epithelial-like hepatocellular carcinoma cells (HepG2). The settings on record: cited from earlier work.
Series [3] has as its system human gastric cancer cells (SGC-7901). The settings on record: cited from earlier work.
Another series concerns P. mirabilis urease. More on the design: method as in PMID 8494373. The settings on record: limited concentrations tested; cited from earlier work.
The subject of series [4] is Helicobacter pylori urease. More on the design: method as in earlier work. The settings on record: cited from earlier work.
[5] abbreviates: 24 h, alone: 5 mM AHA, 25 mM histamine, 25 mM 4-imidazole acetate.

2-Hydroxy-4-methoxybenzaldehyde: in the series on urease operon (ureR), the urease operon expression result is recorded as “reduce urease operon expression”.
On to `CC(=O)NO` [AHA, acetohydroxamic acid, reference compound], for which the crystalline biofilm formation entry in the series on P. mirabilis (24 h, alone: 1.25 mM AHA, 12.5 mM histamine, 12.5 mM 4-imidazole acetate) was “no impact on crystalline biofilm formation”. Moreover, in the series on P. mirabilis (setting [5]), the “Magnesium and phosphorus precipitation on catheter segments (ICP-OES)” value is on record as “reduced, although the reduction was not statistically significant”; the “catheter biofilm biomass (crystal violet) vs untreated P. mirabilis” value is on record as “significantly reduced biofilm biomass”. Further, the “pH of AUM collected from “bladders” over 24 h” value with P. mirabilis (alone, lower concentrations) is given as “failed to restrict pH”. Moreover, the “pH of AUM collected from “bladders” over 24 h” value with P. mirabilis (alone: 5 mM AHA, 25 mM histamine, 25 mM 4-imidazole acetate, nucleation point ~ pH 8) is given as “never surpassed the nucleation point”. In the series on P. mirabilis (tested individually), the “P. mirabilis CFUs in effluent over time” value is recorded as “no meaningful differences between CFUs over time”. For the same compound, the “urease-mediated pH increase” value in the series on P. mirabilis (tested individually, dose response) is given as “perturbed urease-mediated pH increase in a dose-dependent manner”. Besides, the “decrease in viability of K562” value with lymphoblasts (K562) is given as 60-70%. For the same compound, the “efficacy in clinical trials” value in series [1] is listed as “showed efficacy in preventing urinary stone formation”. Moreover, in series [1] (in vivo), the severe side effects result was “teratogenesis, hemolytic anemia, psychoneurological and muscular symptoms”. Besides, in series [2], the “decrease in viability of HepG2” value is given as 60-70%. The “decrease in viability of SGC-7901” value in series [3] was 60-70%.
As to `COc1ccc2[nH]c([S+]([O-])Cc3ncc(C)c(OC)c3C)nc2c1` (centres unmarked) [Omeprazole], the “P. mirabilis urease activity” value with P. mirabilis urease is “did not inhibit”. Also, in series [4], the “Helicobacter pylori urease activity” value is “inhibit”.
Regarding `Cc1c(OCC(F)(F)F)ccnc1C[S+]([O-])c1nc2ccccc2[nH]1` (centres unmarked) [lansoprazole], the “P. mirabilis urease activity” value in the series with P. mirabilis urease is on record as “did not inhibit”. The “Helicobacter pylori urease activity” value in series [4] was “inhibit”.
